Assays:
human D2L receptor = human D2L receptor (Homo sapiens, UniProt P14416); assay: Dopamine D2L receptor binding assay ([3H]-spiperone); settings: 10 nM test drug; [3H]-spiperone 0.5 nM; human D2L receptor-expressing CHO cell membrane; read-out: BINDING INHIBITION RATE (%) D2L 10 nM
Protocol: (1) Dopamine D2L Receptor Binding Assay
D2L receptor binding assay was performed in reference to a method described by Hirose et al. (Japan. J. Pharmacol., 53, 321-329, 1990). After a reaction in a total volume of 200 μL of 50 mM Tris-HCl (pH=7.6) buffer solution containing 50 μL of [^3H]-spiperone (final concentration 0.5 nM), 1 μL of test drug in DMSO, and 149 μL of human D2L receptor-expressing CHO cell membrane sample, human D2L receptor binding activity of [^3H]-spiperone was measured. The reaction solution let stand for 60 minutes at room temperature, and then it was quickly added on a glass fiber filter plate (Multiscreen FB, Millipore inc.) coated with 0.3% polyethyleneimine (PEI) and filtered under reduced pressure. The glass fiber filter was washed with 200 μL of ice-cooled 50 mM Tris-HCl (pH=7.6) twice, repeatedly filtered under reduced pressure, and then transferred to a vial containing 4 mL of Ecoscint A (National Diagnostics inc.). The residual radioactivity on the glass fiber filter was measured by a liquid scintillation counter. Nonspecific binding was measured in the presence of 10 μM of spiperone, and [^3H]-spiperone binding inhibition rate in the presence of 10 nM of test drug was determined. The larger binding inhibition rate (%) means that test drug has the higher binding affinity for human D2L receptor.

human 5-HT2A receptor = molecular target: T1, human 5-HT2A receptor (Homo sapiens, UniProt P28223); assay: Serotonin 5-HT2A receptor binding assay ([3H]-ketanserin); settings: [3H]-ketanserin 1 nM, human 5-HT2A receptor-expressing CHO cell membrane; for inhibition at 0.001 µM: 1 nM test drug, read-out: BINDING INHIBITION RATE (%) 5HT2A 1 nM; for inhibition at 0.01 µM: 10 nM test drug, read-out: BINDING INHIBITION RATE (%) 5HT2A 10 nM
T1 construct: expressed in transfected cells; host or cells: CHO cells (membrane preparation)
Protocol: (2) Serotonin 5-HT2A Receptor Binding Assay
5-HT2A receptor binding assay was performed in reference to a method described by Hirose et al. (Japan. J. Pharmacol., 53, 321-329, 1990). After a reaction in a total volume of 200 μL of 50 mM Tris-HCl (pH=7.6) buffer solution containing 50 μL of [^3H]-ketanserin (final concentration 1 nM), 1 μL of test drug in DMSO, and 149 μL of human 5-HT2A receptor-expressing CHO cell membrane sample, human 5-HT2A receptor binding activity of [^3H]-ketanserin was measured. The reaction solution let stand for 15 minutes at 37° C., and then it was quickly added on a glass fiber filter plate (Multiscreen FB, Millipore inc.) coated with 0.05% Brij 35 and filtered under reduced pressure. The glass fiber filter was washed with 200 μL of ice-cooled 50 mM Tris-HCl (pH=7.6) twice, repeatedly filtered under reduced pressure, and then transferred to a vial containing 4 mL of Ecoscint A (National Diagnostics inc.). The residual radioactivity on the glass fiber filter was measured by a liquid scintillation counter. Nonspecific binding was measured in the presence of 10 μM of MDL-100907, and [^3H]-ketanserin binding inhibition rate in the presence of 1 nM or 10 nM of test drug was determined.

human 5-HT6 receptor = molecular target: T2, human 5-HT6 receptor (Homo sapiens, UniProt P50406); assay: Serotonin 5-HT6 receptor binding assay ([3H]-clozapine); settings: 100 nM test drug; [3H]-clozapine 2 nM; human 5-HT6 receptor-expressing CHO cell membrane; read-out: BINDING INHIBITION RATE (%) 5HT6 100 nM
T2 construct: expressed in transfected cells; host or cells: CHO cells (membrane preparation)
Protocol: (3) Serotonin 5-HT6 Receptor Binding Assay
After a reaction in a total volume of 200 μL of 50 mM Tris-HCl (pH=7.6), 4 mM CaCl2, and 0.5 mM EDTA buffer solution containing 50 μL of [^3H]-clozapine (final concentration 2 nM), 1 μL of test drug in DMSO, and 149 μL of human 5-HT6 receptor-expressing CHO cell membrane sample, human 5-HT6 receptor binding activity of [^3H]-clozapine was measured. The reaction solution let stand for 40 minutes at room temperature, and then it was quickly added on a glass fiber filter plate (Multiscreen FB, Millipore inc.) coated with 0.3% polyethyleneimine (PEI) and filtered under reduced pressure. The glass fiber filter was washed with 200 μL of ice-cooled 50 mM Tris-HCl (pH=7.6) twice, repeatedly filtered under reduced pressure, and then transferred to a vial containing 4 mL of Ecoscint A (National Diagnostics inc.). The residual radioactivity on the glass fiber filter was measured by a liquid scintillation counter. Nonspecific binding was measured in the presence of 10 μM of SB-258585, and [^3H]-clozapine binding inhibition rate in the presence of 100 nM of test drug was determined.

human α1D receptor = molecular target: T3, human α1D receptor (Homo sapiens, UniProt P25100); assay: Adrenaline α1D receptor binding assay ([3H]-prazosin); settings: 100 nM test drug; [3H]-prazosin 0.6 nM; human α1D receptor-expressing CHO cell membrane; read-out: BINDING INHIBITION RATE (%) α1D 100 nM
T3 construct: expressed in transfected cells; host or cells: CHO cells (membrane preparation)
T3 sequence (P25100 1-572): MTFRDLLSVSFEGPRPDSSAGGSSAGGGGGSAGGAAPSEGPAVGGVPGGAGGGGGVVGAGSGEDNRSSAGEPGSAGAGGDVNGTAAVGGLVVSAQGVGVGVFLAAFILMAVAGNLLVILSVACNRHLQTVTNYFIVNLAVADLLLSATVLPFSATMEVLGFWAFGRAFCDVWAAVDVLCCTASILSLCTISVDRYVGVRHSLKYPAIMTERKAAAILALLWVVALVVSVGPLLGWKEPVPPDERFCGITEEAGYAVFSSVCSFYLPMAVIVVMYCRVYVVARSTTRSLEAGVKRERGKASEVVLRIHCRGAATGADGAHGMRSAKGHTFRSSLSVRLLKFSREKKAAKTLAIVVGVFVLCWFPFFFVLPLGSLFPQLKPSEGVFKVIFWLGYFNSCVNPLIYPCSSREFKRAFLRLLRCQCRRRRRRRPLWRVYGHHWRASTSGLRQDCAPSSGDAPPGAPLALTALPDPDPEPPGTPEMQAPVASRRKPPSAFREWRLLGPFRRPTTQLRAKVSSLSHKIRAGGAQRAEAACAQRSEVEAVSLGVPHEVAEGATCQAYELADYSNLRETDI
Protocol: (4) Adrenaline α1D Receptor Binding Assay
After a reaction in a total volume of 200 μL of 50 mM Tris-HCl (pH=7.6) buffer solution containing 50 μL of [^3H]-prazosin (final concentration 0.6 nM), 1 μL of test drug in DMSO, and 149 μL of human α1D receptor-expressing CHO cell membrane sample, human α1D receptor binding activity of [^3H]-prazosin was measured. The reaction solution let stand for 30 minutes at room temperature, and then it was quickly added on a glass fiber filter plate (Multiscreen FB, Millipore inc.) coated with 0.3% polyethyleneimine (PEI) and filtered under reduced pressure. The glass fiber filter was washed with 200 μL of ice-cooled 50 mM Tris-HCl (pH=7.6) twice, repeatedly filtered under reduced pressure, and then transferred to a vial containing 4 mL of Ecoscint A (National Diagnostics inc.). The residual radioactivity on the glass fiber filter was measured by a liquid scintillation counter. Nonspecific binding was measured in the presence of 1 μM of prazosin, and [^3H]-prazosin binding inhibition rate in the presence of 100 nM of test drug was determined.

T2 sequence (P50406 whole entry): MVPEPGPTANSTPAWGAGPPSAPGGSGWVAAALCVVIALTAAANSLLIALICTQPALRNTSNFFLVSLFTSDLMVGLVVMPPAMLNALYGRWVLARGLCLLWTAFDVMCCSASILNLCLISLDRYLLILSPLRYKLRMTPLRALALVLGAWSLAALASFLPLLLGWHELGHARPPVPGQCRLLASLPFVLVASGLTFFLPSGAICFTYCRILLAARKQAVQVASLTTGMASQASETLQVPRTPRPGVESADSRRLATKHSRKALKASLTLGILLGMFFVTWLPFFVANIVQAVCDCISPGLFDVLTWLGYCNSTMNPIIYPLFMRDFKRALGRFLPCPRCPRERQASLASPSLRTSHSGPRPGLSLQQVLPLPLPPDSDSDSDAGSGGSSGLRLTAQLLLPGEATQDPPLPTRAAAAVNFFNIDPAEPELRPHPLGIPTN
human D2L receptor, sequence (P14416 whole entry): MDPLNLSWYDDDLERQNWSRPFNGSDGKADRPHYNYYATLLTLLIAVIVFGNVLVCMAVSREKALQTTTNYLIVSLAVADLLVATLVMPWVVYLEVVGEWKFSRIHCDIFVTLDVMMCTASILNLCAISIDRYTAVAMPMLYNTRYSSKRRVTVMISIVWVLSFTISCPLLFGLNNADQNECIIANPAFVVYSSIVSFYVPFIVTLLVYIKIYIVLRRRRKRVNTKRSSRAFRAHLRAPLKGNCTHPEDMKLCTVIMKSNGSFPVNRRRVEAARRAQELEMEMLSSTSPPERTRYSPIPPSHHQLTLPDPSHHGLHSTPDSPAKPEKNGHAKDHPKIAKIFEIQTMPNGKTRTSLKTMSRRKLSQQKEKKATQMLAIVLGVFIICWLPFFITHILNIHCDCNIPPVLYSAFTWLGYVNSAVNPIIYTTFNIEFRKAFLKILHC
T1 sequence (P28223 whole entry): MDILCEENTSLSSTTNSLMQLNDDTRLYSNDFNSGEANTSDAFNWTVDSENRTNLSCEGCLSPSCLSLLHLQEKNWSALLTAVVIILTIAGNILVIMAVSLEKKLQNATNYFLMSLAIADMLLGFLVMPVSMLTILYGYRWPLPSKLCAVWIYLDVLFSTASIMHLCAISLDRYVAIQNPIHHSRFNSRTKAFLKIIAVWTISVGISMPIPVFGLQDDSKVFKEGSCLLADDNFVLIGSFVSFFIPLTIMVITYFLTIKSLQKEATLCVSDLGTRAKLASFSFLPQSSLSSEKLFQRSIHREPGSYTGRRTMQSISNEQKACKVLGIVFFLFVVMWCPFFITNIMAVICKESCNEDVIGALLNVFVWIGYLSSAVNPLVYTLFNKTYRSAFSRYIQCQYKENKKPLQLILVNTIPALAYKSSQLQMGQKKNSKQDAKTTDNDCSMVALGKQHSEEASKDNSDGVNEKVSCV

| SMILES | inhibition at 0.01 µM (human D2L receptor) [%] | inhibition at 0.001 µM (human 5-HT2A receptor) [%] | inhibition at 0.01 µM (human 5-HT2A receptor) [%] | inhibition at 0.1 µM (human 5-HT6 receptor) [%] | inhibition at 0.1 µM (human α1D receptor) [%] |
| --- | --- | --- | --- | --- | --- |
| COc1ccc2[nH]c(C(=O)N3CCCC[C@H]3CCN3CCC(c4coc5ccccc45)CC3)cc2c1 [Example 26] | 77 | 77 | 98 | 65 | 67 |
| Cc1ccc2[nH]c(C(=O)N3CCOC[C@H]3CCN3CCC(c4coc5ccccc45)CC3)cc2c1 [Example 27] | 87 | – | 93 | 85 | 97 |
| O=C(/C=C/c1ccc2c(c1)OCO2)N1CCC[C@H](CN2CCC(c3coc4ccccc34)CC2)C1 [Example 29] | 80 | – | 100 | 85 | 92 |
| COc1ccc2cc(C(=O)N3CCCC[C@H]3CCN3CCC(c4c[nH]c5ccccc45)CC3)[nH]c2c1 [Example 31] | 78 | – | 96 | 88 | 54 |
| COc1ccc2cc(C(=O)N3CC[C@H]3CCN3CCC(c4c[nH]c5ccccc45)CC3)[nH]c2c1 [Example 32] | 36 | – | 95 | 97 | 68 |
| O=C(/C=C/c1ccc2c(c1)OCO2)N1CCC[C@H](CN2CCC(c3c[nH]c4ccccc34)CC2)C1 [Example 34] | 75 | – | 98 | 86 | 93 |
| COc1ccc2cc(C(=O)N3C[C@H](O)C[C@H]3CCN3CCC(c4c[nH]c5ccccc45)CC3)[nH]c2c1 [Example 35] | 37 | – | 89 | 79 | 81 |
| CCNC(=O)O[C@@H]1C[C@@H](CCN2CCC(c3c[nH]c4ccccc34)CC2)N(C(=O)c2cc3cc(OC)ccc3[nH]2)C1 [Example 36] | 48 | – | 87 | 86 | 75 |
| COc1ccc2[nH]c(C(=O)N3C[C@@](C)(O)C[C@H]3CCN3CCC(c4c[nH]c5ccccc45)CC3)cc2c1 [Example 38] | 72 | – | 97 | 86 | 67 |
| Cc1ccc2cc(C(=O)N3C[C@H](O)CC[C@H]3CCN3CCC(c4c[nH]c5ccccc45)CC3)[nH]c2c1 [Example 39] | 77 | 70 | – | 86 | 69 |
| Cc1ccc2cc(C(=O)N3CCOCCC3CCN3CCC(c4c[nH]c5ccccc45)CC3)[nH]c2c1 (stereo not shown) [Example 43] | 74 | 77 | – | 83 | 82 |
| O=C(c1ccc(F)cc1)C1CCN(C[C@H]2CCCN(C(=O)c3cc4ccc(Cl)cc4[nH]3)C2)CC1 [Example 45] | 82 | 84 | – | 97 | 46 |
| Cc1cc2c3c(c1)cc(C(=O)N1CCC[C@H]1CCN1CCC(C(=O)c4ccc(F)cc4)CC1)n3CCC2=O [Example 46] | 58 | 48 | – | 82 | 54 |
| COc1cc2cc(C(=O)N3CCC[C@H]3CCN3CCC(C(=O)c4ccc(F)cc4)CC3)[nH]c2cn1 [Example 50] | 71 | 66 | – | 88 | 43 |
| O=C(c1ccc(F)cc1)C1CCN(CC[C@@H]2CCCN2C(=O)c2cc(-c3ccccc3)n[nH]2)CC1 [Example 51] | 81 | 76 | – | 95 | 51 |
| O=C(c1ccc(F)cc1)C1CCN(CC[C@@H]2CCCN2C(=O)c2[nH]c3ccccc3c2C(=O)N2CCCCC2)CC1 [Example 54] | 71 | 7 | – | 81 | 63 |
| N#Cc1ccc2[nH]c(C(=O)N3CCC[C@H]3CCN3CCC(C(=O)c4ccc(F)cc4)CC3)cc2c1 [Example 56] | 84 | 70 | – | 91 | 70 |
| O=C(c1nc2cc(Cl)ccc2[nH]1)N1CCCC[C@H]1CCN1CCC(c2c[nH]c3ccccc23)CC1 [Example 58] | 57 | 74 | 91 | 98 | 97 |
| Cc1ccc2nc(C(=O)N3CCC[C@H]3CCN3CCC(C(=O)c4ccc(F)cc4)CC3)[nH]c2c1 [Example 59] | 91 | 58 | – | 87 | 95 |
| COc1ccc2[nH]c(C(=O)N3CCC[C@H]3CCN3CCC(c4cn(-c5ccc(F)cc5)c5ccc(Cl)cc45)CC3)cc2c1 [Example 60] | 76 | – | 78 | 97 | 76 |

— patent publication US8541585B2, “N-acyl cyclic amine derivative or pharmaceutically acceptable salt thereof” (Dainippon Sumitomo Pharma Co., Ltd., priority 2010, dated 2013)
